The compounds below were run against T1, Keap1-Nrf2 PPI (Keap1 kelch domain protein, FITC labeled Nrf2 9 peptide) (Homo sapiens, UniProt Q14145) (assay: Fluorescence polarization based Keap1-Nrf2 PPI competitive inhibition experiment (FP experiment)). Details: FP experiment; general formula III compounds; unit inferred.
T1 construct: 10 μL 12 nm Keap1 kelch domain protein
T1 sequence (Q14145 321-609 limits assumed): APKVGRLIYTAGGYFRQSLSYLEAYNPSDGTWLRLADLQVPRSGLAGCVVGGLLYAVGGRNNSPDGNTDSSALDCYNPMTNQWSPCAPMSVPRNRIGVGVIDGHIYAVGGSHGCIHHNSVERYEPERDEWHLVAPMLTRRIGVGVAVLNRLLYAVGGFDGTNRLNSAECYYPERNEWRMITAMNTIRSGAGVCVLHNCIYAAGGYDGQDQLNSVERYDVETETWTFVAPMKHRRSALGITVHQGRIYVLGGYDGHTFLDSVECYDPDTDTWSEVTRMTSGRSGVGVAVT
Type: binding
Method: 1. Keap1-Nrf2 PPI Competitive Inhibition Test Based on Fluorescence Polarization (FP Experiment)
The 384-well blackboard model 3676 produced by Corning is used in FP experiment, with a total volume of reaction of 40 μL. 20 μL compound, 10 μL 4 nm FITC labeled Nrf2 9 peptide, 10 μL 12 nm Keap1 kelch domain protein are added to the well in order. 20 μL 200 nM DDO-1002, 10 μL 4 nM of the FITC-labeled Nrf2 9 peptide, 10 μL 12 nM of Keap1 Ketch domain protein are used in the positive control; 20 μL HEPES buffer, 10 μL 4 nM of the FITC-labeled Nrf2 9 peptide, 10 μL, 12 nM of Keap1 Kelch domain protein are used in the negative control; 10 μL 4 nM of the FITC-labeled Nrf2 9 peptide, 30 μL of HEPES buffer are used in the blank control. After addition is complete, they are incubated for 30 min at room temperature. The detection instrument is a SpectraMax Multi-Mode Microplate Reader (Molecular Devices), the excitation light wavelength selected is 485 nm, the emission light wavelength is 545 nm, and the fluorescence intensity in the horizontal and vertical directions is detected to calculate the polarization value. The inhibition rate is calculated as: inhibition %=[…]/(Pmax−Pmin) wherein Pobs is the polarization value of the compound well, Pmax is the polarization value of the negative control well, and Pmin is the polarization value of the blank well. Data treatment is performed using GraphPad Prism, and IC50 of the compound is calculated using a concentration-inhibition rate curve. The IC50 values for each compound are as previously described.
In the case of C#CCN(c1ccc(NS(=O)(=O)c2ccccc2OC)c2ccccc12)[C@@H](C)CC(=O)O [DDO-1198], the IC50 is reported as 2000 nM.
With C#CCN(c1ccc(NS(=O)(=O)c2cccc(OC)c2)c2ccccc12)[C@@H](C)CC(=O)O [DDO-1200, (S)-3-((4-((3-methoxyphenyl)sulfonamido)naphthalen-1-yl)(prop-2-yn-1-yl)amino) butanoic acid] the IC50 was 240 nM.
C#CCN(c1ccc(NS(=O)(=O)c2ccccc2C)c2ccccc12)[C@@H](C)CC(=O)O [DDO-1202, (S)-3-((4-((2-methylphenyl)sulfonamido)naphthalen-1-yl)(prop-2-yn-1-yl)amino) butanoic acid] gave an IC50 of 240 nM.
C#CCN(c1ccc(NS(=O)(=O)c2ccc(C)cc2C)c2ccccc12)[C@@H](C)CC(=O)O [DDO-1204, (S)-3-((4-((2,4-dimethylphenyl)sulfonamido)naphthalen-1-yl) (prop-2-yn-1-yl)amino) butanoic acid] gave an IC50 of 93 nM.
Work on C#CCN(c1ccc(NS(=O)(=O)c2c(C)cc(C)cc2C)c2ccccc12)[C@@H](C)CC(=O)O [DDO-1206, (S)-3-(prop-2-yn-1-yl(4-((2,4,6-trimethylphenyl)sulfonamido)naphthalen-1-yl)amino) butanoic acid] yielded an IC50 of 41 nM.

Same assay, conditions: FP experiment; general formula IV compounds
C#CCN(c1ccc(N(CC(=O)O)S(=O)(=O)c2ccc(C(C)C)cc2)c2ccccc12)[C@@H](C)CC(=O)O [DDO-1197, (S)-3-((4-((N-(carboxymethyl)-4-isopropylphenyl)sulfonamido)naphthalen-1-yl)(prop-2-yn-1-yl)amino) butanoic acid] showed an IC50 of 80 nM.
Work on C#CCN(c1ccc(N(CC(=O)O)S(=O)(=O)c2ccccc2OC)c2ccccc12)[C@@H](C)CC(=O)O [DDO-1199] yielded an IC50 of 290 nM.
Compound C#CCN(c1ccc(N(CC(=O)O)S(=O)(=O)c2cccc(OC)c2)c2ccccc12)[C@@H](C)CC(=O)O [DDO-1201] has an IC50 of 130 nM.
Compound C#CCN(c1ccc(N(CC(=O)O)S(=O)(=O)c2ccccc2C)c2ccccc12)[C@@H](C)CC(=O)O [DDO-1203, (S)-3-((4-((N-(Carboxymethyl)-methylphenyl)sulfonamido)naphthalen-1-yl)(prop-2-yn-1-yl)amino) butanoic acid] has an IC50 of 170 nM.
For C#CCN(c1ccc(N(CC(=O)O)S(=O)(=O)c2ccc(C)cc2C)c2ccccc12)[C@@H](C)CC(=O)O [DDO-1205], the IC50 was 27 nM.
In the case of C#CCN(c1ccc(N(CC(=O)O)S(=O)(=O)c2c(C)cc(C)cc2C)c2ccccc12)[C@@H](C)CC(=O)O [DDO-1207, (S)-3-((4-((N-(Carboxymethyl)-2,4,6-trimethylphenyl)sulfonamidyl)naphthalen-1-yl)(prop-2-yn-1-yl)amino) butanoic acid], the IC50 is reported as 15 nM.
With C#CCN(c1ccc(N(CC(=O)O)S(=O)(=O)c2c(C)c(C)cc(C)c2C)c2ccccc12)[C@@H](C)CC(=O)O [DDO-1209, (S)-3-((4-((N-(Carboxymethyl)-2,3,5,6-tetramethylphenyl)sulfonamido)naphthalen-1-yl)(prop-2-yn-1-yl)amino) butanoic acid] the IC50 was 150 nM.

Same assay, conditions: FP experiment; general formula V / VI compounds
C#CCN(c1ccc(NS(=O)(=O)c2ccc(OC)c(OC)c2)c2ccccc12)[C@@H](C)CC(=O)O [DDO-1210, (S)-3-((4-((3,4-dimethoxyphenyl)sulfonamido)naphthalen-1-yl) (prop-2-yn-1-yl)amino) butanoic acid] showed an IC50 of 72 nM.
For C#CCN(c1ccc(N(CC(=O)O)S(=O)(=O)c2ccc(OC)c(OC)c2)c2ccccc12)[C@@H](C)CC(=O)O [DDO-1211, (S)-3-((4-((N-(Carboxymethyl)-3,4-dimethoxyphenyl)sulfonamido)naphthalen-1-yl)(prop-2-yn-1-yl)amino) butanoic acid], the IC50 was 59 nM.
With C#CCN(c1ccc(NS(=O)(=O)c2ccc(OC)c(F)c2)c2ccccc12)[C@@H](C)CC(=O)O [DDO-1212, (S)-3-((4-((3-fluoro-4-methoxyphenyl)sulfonamido)naphthalen-1-yl) (prop-2-yn-1-yl)amino) butanoic acid] the IC50 was 277 nM.
For C#CCN(c1ccc(N(CC(=O)O)S(=O)(=O)c2ccc(OC)c(F)c2)c2ccccc12)[C@@H](C)CC(=O)O [DDO-1213], the IC50 was 155 nM.
With C#CCN(c1ccc(NS(=O)(=O)c2ccc(OC)c(Cl)c2)c2ccccc12)[C@@H](C)CC(=O)O [DDO-1214] the IC50 was 75 nM.
C#CCN(c1ccc(N(CC(=O)O)S(=O)(=O)c2ccc(OC)c(Cl)c2)c2ccccc12)[C@@H](C)CC(=O)O [DDO-1215] was tested, and the IC50 was 40 nM.
Compound C#CCN(c1ccc(NS(=O)(=O)c2ccc(OC)c(C)c2)c2ccccc12)[C@@H](C)CC(=O)O [DDO-1216, (S)-3-((4-((4-methoxy-3-methylphenyl)sulfonamido)naphthalen-1-yl) (prop-2-yn-1-yl)amino) butanoic acid] has an IC50 of 72 nM.
For C#CCN(c1ccc(N(CC(=O)O)S(=O)(=O)c2ccc(OC)c(C)c2)c2ccccc12)[C@@H](C)CC(=O)O [DDO-1217, (S)-3-((4-((N-(Carboxymethyl)-4-methoxy-3-methylphenyl)sulfonamido)naphthalen-1-yl)(prop-2-yn-1-yl)amino) butanoic acid], the IC50 was 37 nM.
Compound C#CCN(c1ccc(NS(=O)(=O)c2c(C)cc(OC)c(C)c2C)c2ccccc12)[C@@H](C)CC(=O)O [DDO-1218, (S)-3-((4-((4-methoxy-2,3,6-trimethylphenyl)sulfonamido)naphthalen-1-yl) (prop-2-yn-1-yl)amino) butanoic acid] has an IC50 of 23 nM.
C#CCN(c1ccc(N(CC(=O)O)S(=O)(=O)c2c(C)cc(OC)c(C)c2C)c2ccccc12)[C@@H](C)CC(=O)O [DDO-1219, (S)-3-((4-((N-(Carboxymethyl)-4-methoxy-2,3,6-trimethylphenyl)sulfonamidyl)naphthalen-1-yl)(prop-2-yn-1-yl)amino) butanoic acid] showed an IC50 of 7.1 nM.
Compound C#CCN(c1ccc(NS(=O)(=O)c2c(C)cc(OC)cc2C)c2ccccc12)[C@@H](C)CC(=O)O [DDO-1220] has an IC50 of 13 nM.
Compound C#CCN(c1ccc(N(CC(=O)O)S(=O)(=O)c2c(C)cc(OC)cc2C)c2ccccc12)[C@@H](C)CC(=O)O [DDO-1221] has an IC50 of 5.8 nM.
Work on C#CCN(c1ccc(NS(=O)(=O)c2ccc3c(c2)CCO3)c2ccccc12)[C@@H](C)CC(=O)O [DDO-1222, (S)-3-((4-((2,3-dihydrobenzofuran)-5-sulfonamido)naphthalen-1-yl) (prop-2-yn-1-yl)amino) butanoic acid] yielded an IC50 of 160 nM.
C#CCN(c1ccc(N(CC(=O)O)S(=O)(=O)c2ccc3c(c2)CCO3)c2ccccc12)[C@@H](C)CC(=O)O [DDO-1223, (S)-3-((4-((N-(Carboxymethyl)-2,3-dihydrobenzofuran)-5-sulfonamido)naphthalen-1-yl)(prop-2-yn-1-yl)amino) butanoic acid] showed an IC50 of 86 nM.

Same assay, conditions: in words
C#CCN(c1ccc(N(CC(=O)O)S(=O)(=O)c2c(C)cc(OC)cc2C)c2ccccc12)[C@@H](C)CC(=O)O [DDO-1221] was tested, and the “target activity in the FP assay” value was “optimal target activity”.

The compounds below were run on HepG2-ARE-C8 cells (assay: ARE luciferase reporter gene experiment). Details: compound acts 12 h, ratio to DMSO group, FIG. 1, in words.
Type: cell-based
Method: 2. ARE Luciferase Reporter Gene Experiment
HepG2-ARE-C8 cells in log growth phase (these cells are given by A. N. Tony Kong of Rutgers University) are digested with 0.1% pancreatin to prepare a cell suspension, the cell suspension is added to a 96-well microtiter plate at a cell concentration of 4×10^5/mL, added 100 μL per well, and after overnight culture, a DMSO group serves as a negative control, t-BHQ serves as a positive control, and a cell culture lysis reagent serves as a background value. The compound is allowed to act for 12 h, three replicate wells were provided, the growth medium is carefully pipetted from the cells to be examined, 100 μL of pre-cooled. […] 100 μL luciferase detection reagent is added to each well and read immediately. […] Typical delay time is 2 seconds, typical reading time is 10 seconds, and the last measured data is divided from the DMSO group. […]
By a fluorescence polarization based Keap1-Nrf2 PPI competitive inhibition experiment we have shown that on the target level, some compounds (compound numbers see FIG. 1) are able to efficiently compete for binding to Keap1 and thereby activating Nrf2. […] When luciferin is present in a substrate, the […], and the activation capability of a compound on Nrf2 is indirectly reflected by means of fluorescence intensity. […]
For C#CCN(c1ccc(NS(=O)(=O)c2c(C)cc(OC)cc2C)c2ccccc12)[C@@H](C)CC(=O)O [DDO-1220], the “ARE luciferase reporter gene activity (fold induction), cell activity” value was “has the optimal cell activity”.
For C#CCN(c1ccc(N(CC(=O)O)S(=O)(=O)c2c(C)cc(OC)cc2C)c2ccccc12)[C@@H](C)CC(=O)O [DDO-1221], the “ARE luciferase reporter gene activity (fold induction), cell activity” value was “does not have the optimal cell activity”.

From patent US11773057B2, “Naphthalenesulfonamide compound, preparation method, and application” (CHINA PHARMACEUTICAL UNIVERSITY, priority 2019, dated 2023)
